{"source": "patent US9968537B2", "about": "“Anti-dandruff compositions and hair care formulations containing zinc pyrithione and quaternary ammonium salt” (JUBILANT LIFE SCIENCES LIMITED, priority 2013, dated 2018)", "origin": "cited, not measured here", "conditions": "background statement", "data": [{"smiles": "[O-][n+]1ccccc1S.[Zn]", "note": "[ZPTO, zinc pyridine-2-thiol-N-oxide]", "values": [{"measurement": "solubility in water", "value": "6-12 ppm"}]}]}
